Data on 79 compounds can be found in the METLIN SMRT retention time set (Domingo-Almenara et al. 2019).

The data set is described as follows: gradient 5% acetonitrile 3 min, to 50% in 2 min, to 85% in 15 min, held 3 min, 100 µL/min. Particulars: column: Zorbax Extend-C18 2.1 x 50 mm; eluents: water / acetonitrile, 0.1% formic acid. The method, boiled down:
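In both positive and negative ionization mode, a quadrupole time-of-flight mass spectrometer coupled to HPLC analyzed pure standards run in mixtures of ~100 molecules. The Zorbax Extend-C18 column (2.1 × 50 mm, 1.8 μm) was operated at 100 μL/min with water and acetonitrile, each containing 0.1% formic acid. The dead volume was 40 μL and the dwell volume 900 μL. Retention time came from adduct peaks that were computationally picked and individually inspected by hand.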
Turning to `O=C(Nc1ccc(C(=O)N2CCOCC2)cc1)c1cnn2c(C(F)F)cc(-c3ccccc3)nc12`, the RP-LC retention time amounted to 892 s.
Next, `CCn1ncc(CN(C)C(=O)C2CN(C(=O)c3ccccc3)CC23CCCCC3)c1C` (centres undefined): 774 s.
Next, `CCn1nccc1-c1cccc(-c2noc(-c3ccc4cc[nH]c4c3)n2)c1`: 1140 s; `COc1ccc(NC(=O)N2CCCC2c2nc(-c3cccc(F)c3)no2)cc1` (centres undefined): 842 s; `Cc1cc(C)n(-c2ccnc(NCCc3cccs3)n2)n1`: 836 s.
`CC(=O)Nc1nsc(N2CCCC(C(=O)N3CCN(c4cc(C)ccc4C)CC3)C2)n1` (centres undefined) came in with an RP-LC retention time of 843 s.
The same measure for `CCN1CCN(c2ccc3nnc(CCc4nc(-c5ccc(F)cc5)no4)n3n2)CC1`: 602 s; for `CN(C)C(=O)Oc1ccc2c(c1)O/C(=C\C=C\c1ccccc1)C2=O`: 1060 s; for `Cc1nnc2sc(SCc3ccc([N+](=O)[O-])cc3)nn2c1=O`: 697 s.
For `CC(C)NC(=O)C1CCCN(c2cc(=O)n(C)c(=O)n2C)C1` (centres undefined), the RP-LC retention time was determined as 595 s.
The compound `COc1ccc(Cl)cc1S(=O)(=O)N1CCC(C(=O)NCCO)CC1` came in with an RP-LC retention time of 629 s.
The same measure for `O=C(NCC(c1cccnc1)c1c[nH]c2ccccc12)Nc1ccc(F)cc1F` (centres undefined): 674 s; for `COc1ccc(OC)c(NC(=O)C(=O)c2c(C)n(C)c3ccccc23)c1`: 990 s; for `COc1ccc(-c2cc(C(F)(F)F)n3ncc(C(=O)O)c3n2)cc1OC`: 777 s.
For the compound `CCC1=CC2CN3CCc4c([nH]c5ccccc45)[C@@](C(=O)OC)(C2)C13`, the RP-LC retention time was determined as 681 s.
In turn, `Cc1ccc(CNC(=O)N2CC(c3nc(C)no3)C3(CCOCC3)C2)cc1` (centres undefined) came in with an RP-LC retention time of 731 s.
The compound `CCOc1ccc(-c2csc(NC(=O)CCCOc3ccc(OC)cc3)n2)cc1` returned an RP-LC retention time of 1080 s.
With `CCCn1ccc2oc(C)c(C(=O)NCc3ccccc3Br)c2c1=O`, the RP-LC retention time is 1110 s.
Next, `O=C(Nc1nnc(SCC(=O)N2CCCc3ccccc32)s1)c1cccs1`: 827 s; `Cc1oc(C2CCN(C(=O)C3CCN(S(=O)(=O)N4CCC(C)CC4)CC3)CC2)nc1C(=O)N1CCCC1`: 861 s.
Next, `O=C(NC1CC1)c1ccc(OCC2CCN(C(=O)c3ccc(F)cc3F)CC2)cc1`: 804 s.
As for `COCCNC(=O)C1Cc2ccccc2CN1S(=O)(=O)c1cccc(C)c1` (centres undefined), the RP-LC retention time came out at 845 s.
Next, `O=C(CSc1cc(N2CCN(c3ccccc3F)CC2)ncn1)Nc1ccc(Cl)cc1F`: 1310 s; `CCOc1ccc(C2Cn3nnc(-c4nc(-c5ccc(OC)cc5)no4)c3CO2)cc1` (centres undefined): 1160 s; `CCN1CCN(c2nc3cc(C(=O)OC)ccc3c(=O)n2-c2cc(OC)cc(OC)c2)CC1`: 661 s.
Next, `CC(C)Cn1c(=O)c2cc(C(=O)N3CCSCC3)nn2c2ccccc21`: 955 s; `Cc1cc(N2CCN(S(=O)(=O)c3ccccc3)CC2)nc(NC2CCCCC2)n1`: 776 s.
Take `Cc1c(-c2noc(-c3ccc(F)cc3)n2)nnn1Cc1ccc(F)cc1`: the RP-LC retention time was found to be 1060 s.
The same measure for `COC(=O)Cn1c(C2CC(=O)N(c3ccccc3OC)C2)nc2ccccc21` (centres undefined): 674 s; for `Cc1ccc(-c2ccc(N3CCN(c4ccccn4)CC3)nn2)cc1S(=O)(=O)N1CCOCC1`: 623 s; for `CCOC(=O)[C@@H](C)NC(=O)C1CCN(S(=O)(=O)c2ccc(C)cc2)CC1`: 787 s.
In turn, `COc1cc(S(=O)(=O)NC2CC(C)(C)NC(C)(C)C2)ccc1F` displayed an RP-LC retention time of 553 s.
Turning to `CN1C(=O)NC(c2ccccc2C(F)(F)F)C2=C1CN(CCC(=O)N1CCCC1)C2=O` (centres undefined), the RP-LC retention time turned out to be 598 s.
Compound `COc1ccc(NC(=O)CN2CCc3[nH]c4c(C)c(C)ccc4c(=O)c3C2)cc1Cl` had an RP-LC retention time of 650 s.
`Cn1cnc(S(=O)(=O)N2CCC(C(=O)NCc3ccc(Cl)cc3)CC2)c1` had an RP-LC retention time of 702 s.
`O=C(Nc1cc(C(F)(F)F)cc(C(F)(F)F)c1)c1ccc(=O)[nH]n1` registered an RP-LC retention time of 814 s.
For the compound `CC1CN(c2ccccc2)c2nc3c(c(=O)n(CC(=O)O)c(=O)n3C)n2C1` (centres undefined), the RP-LC retention time worked out at 709 s.
`CCOC(=O)c1sc(NC(=O)C2CCCCN2S(=O)(=O)c2cccs2)cc1C` (centres undefined) showed an RP-LC retention time of 962 s.
The same measure for `O=C(Nc1ccc2nncn2c1)Nc1cc(F)ccc1F`: 726 s; for `COc1ccc2nc([S@](=O)Cc3ncc(C)c(OC)c3C)[nH]c2c1`: 664 s.
The same measure for `COC(=O)c1ncn2c1C(=O)N(c1cc(C)ccc1C)C(C)(C(=O)NCc1ccccc1)C2` (centres undefined): 731 s; for `Cc1noc(C)c1C1CCCN1C(=O)c1cc(-c2ccccc2F)no1` (centres undefined): 859 s; for `CC(NC(=O)C1CCN(c2cnc(N3CCCC3)nc2)CC1)c1ccc(F)cc1` (centres undefined): 699 s.
Next, `Cc1ccc(-c2nnc(-c3cccc(S(=O)(=O)N4CCCC4)c3)o2)cc1`: 1010 s; `Cc1noc(C)c1Cc1ccc(C(=O)N2CCCCCCNC(=O)[C@@H]3CCCC[C@@H]32)o1`: 839 s.
`O=C(c1ccc(F)c(F)c1)N1CCN(c2nc(CN3CCOCC3)cs2)CC1`: the RP-LC retention time was 617 s.
`O=C(Cn1cnc2nc(-c3cccnc3)ncc2c1=O)Nc1ccc2c(c1)OCO2`: the RP-LC retention time is 826 s.
Next, `CCN(CC)C(=O)c1ccc2nc(-c3ccc(C)c(C)c3)cn2c1`: 669 s.
Regarding `Cc1ccc(C)c(NC(=O)Cn2c(=O)n(-c3ccccc3)c3ncccc32)c1`, the RP-LC retention time was determined as 852 s.
In turn, `Cc1c(C2CCN(C(=O)NCc3ccc(F)cc3)CC2)noc1N` showed an RP-LC retention time of 683 s.
The same measure for `Cc1ccc(CC(=O)N2CCN(c3cc(-c4cccs4)[nH]n3)CC2)cc1`: 758 s.
Next, `O=C(CN1C(=O)C2CCCCN2C(=O)c2ccccc21)NCCN1CCCCCC1` (centres undefined): 590 s.
Turning to `Cc1nn(-c2ccc(SCC(=O)NC(C)C)nn2)c(C)c1C`, the RP-LC retention time was 776 s.
Next, `CCN1CCN(c2ccc(NC(=O)c3cccc(Cl)c3)cn2)C1=O`: 802 s.
For `COc1ccc(-c2ccc(=O)[nH]n2)cc1OC`, the RP-LC retention time came out at 582 s.
Next, `CCCN(CCC)C1Cc2cc(OC)c(OC)cc2C1`: 680 s.
In turn, `COC(=O)c1scc(-c2ccc(C)cc2)c1S(=O)(=O)N1CCN(c2ccccn2)CC1` registered an RP-LC retention time of 807 s.
As for `CCc1nc2ccccc2c(C(=O)NC2CCCCC2)c1C`, the RP-LC retention time came out at 650 s.
Next, `CCc1ccc(NC(=O)Cn2c(N)nc(CC)cc2=O)cc1`: 596 s; `CCOc1ncccc1CNS(=O)(=O)c1cccnc1`: 661 s.
The same measure for `Cc1cc(C)c(S(=O)(=O)N2CCCC(C(=O)NCc3ccncc3)C2)c(C)c1` (centres undefined): 647 s.
In turn, `CCOC(=O)c1c(C)oc2nc(C)nc(NC3CCN(Cc4ccccc4)CC3)c12` had an RP-LC retention time of 597 s.
Next, `Cc1ccc(CNC(=O)C2(C)CCN(C(=O)Nc3ccc(C)c(Cl)c3)CC2)cc1`: 972 s.
Regarding `COCCNC(=O)C1CCN(C(=O)c2ncn3c2COC(c2ccc(OC)cc2)C3)CC1` (centres undefined), the RP-LC retention time came out at 658 s.
The same measure for `COCCn1cc2c3c(cccc31)CN(C(=O)Nc1ccc(OC)cc1OC)CC2`: 883 s; for `CC(=O)N1c2ccc(S(=O)(=O)N3CCCCC3)cc2CC1C(=O)NCCCN1CCCCC1` (centres undefined): 577 s.
As for `Cc1cc(C)c(NC(=O)COc2cc(C)nc(N3CCN(c4ccccc4)CC3)n2)c(C)c1`, the RP-LC retention time amounted to 942 s.
`Fc1ccc(C2Cn3nnc(-c4nc(-c5ccccc5)no4)c3CO2)cc1` (centres undefined) yielded an RP-LC retention time of 1120 s.
As for `CC(C)CCNC(=O)c1ccc2c(c1)NC(=O)C1CCCCN21` (centres undefined), the RP-LC retention time worked out at 813 s.
`COc1cccc(CNC(=O)NCCC2CCN(S(=O)(=O)c3ccccc3)CC2)c1` had an RP-LC retention time of 821 s.
The same measure for `CCCc1ccc(S(=O)(=O)N2CCC3(CC2)NCCN=C3NCc2ccccc2)cc1`: 809 s.
Next, `O/C(=C\Sc1nnc(COc2ccc(Cl)cc2Cl)o1)c1ccc(F)cc1`: 915 s; `COCCNC(=O)CN1c2ccc(F)cc2-c2ccccc2S1(=O)=O`: 756 s.
The compound `Cc1cc(C2CCCN2C(=O)Nc2ccccc2Cl)no1` (centres undefined) had an RP-LC retention time of 802 s.
For `COc1ccc(NC(=O)C(C)C2CCN(C(=O)Nc3ccc(Cl)cc3)CC2)cc1` (centres undefined), the RP-LC retention time came to 854 s.
The same measure for `CC(Cc1cc2c(c(C(N)=O)c1)N(CCCO)CC2)NCCOc1ccccc1OCC(F)(F)F` (centres undefined): 654 s; for `COCCN1CCCc2ccc(NC(=O)c3cccc(Br)c3)cc21`: 993 s; for `CCc1ccc(CNC(=O)C2CCN(c3cncnc3N3CCN(C)CC3)CC2)cc1`: 588 s.
The same measure for `COc1ccc(-n2c(=O)c3sccc3n(Cc3nc(-c4ccc(F)c(Cl)c4)no3)c2=O)cc1`: 1040 s.
